Assay results: paper PMC6396024, “Artemin and an Artemin-Derived Peptide, Artefin, Induce Neuronal Survival, and Differentiation Through Ret and NCAM” (Frontiers in Molecular Neuroscience, 2019)
Bridge positions count the residues as written; N and C are the ends. Ends that are not written are not given here. I, II: the chains in the order shown.

T1: recombinant human GFRα3/Fc (human, UniProt O60609 32-374)
T1 construct: GDNF family receptor alpha-3 (GFRα3), human; Commercial Fc chimera; also called GFL receptor α3; source: bought: R&D Systems
T1 sequence (looked up): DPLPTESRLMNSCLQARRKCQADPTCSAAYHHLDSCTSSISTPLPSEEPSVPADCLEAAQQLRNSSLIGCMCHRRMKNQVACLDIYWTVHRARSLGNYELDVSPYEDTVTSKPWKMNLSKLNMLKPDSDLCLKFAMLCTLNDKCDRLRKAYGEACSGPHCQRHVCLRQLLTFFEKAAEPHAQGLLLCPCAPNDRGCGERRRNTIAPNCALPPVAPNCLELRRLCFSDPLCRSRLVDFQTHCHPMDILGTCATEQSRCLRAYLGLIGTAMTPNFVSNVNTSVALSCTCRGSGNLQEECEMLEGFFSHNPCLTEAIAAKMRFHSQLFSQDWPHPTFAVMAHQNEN


Key:
[1] = tested on: cerebellar granule neurons (CGNs); assay: Neurite outgrowth assay in CGNs; type: cell-based, Wistar rat; conditions: 24 h; for maximum level of neurite outgrowth: untreated control = 100%, mean of four independent experiments; for neurite outgrowth, single agent in competition assay: ARTN 2.1 nM alone or artefin 4.2 μM alone, paired t-test versus control; for overall neuritogenic effect: ARTN 0.013–2.1 nM, artefin 0.16–37.9 μM, one-way ANOVA
Experimental: (§1) Cerebellar granule neurons (CGNs) were prepared from 7-day-old Wistar rat pups (Charles River Laboratories, Sulzfeld, Germany) as previously described ([Schousboe et al., 1989]). Briefly, pups were decapitated, and the cerebellum was removed and cleared from blood vessels and meninges in ice-cold modified Krebs-Ringer buffer. The cerebellum was dissociated by chopping and trypsinization. Cells were washed in Krebs-Ringer buffer containing DNAse I (Sigma, St. Louis, MO, United States) and soybean trypsin inhibitor (Sigma) to stop trypsinization, and the remaining tissue pieces were pelleted by centrifugation. Cells were then washed in Krebs-Ringer buffer containing Ca^2+ and Mg^2+ and re-suspended in appropriate Neurobasal^TM medium (Invitrogen, Taastrup, Denmark) with supplements depending on the experiment.
(§2) Cerebellar granule neurons CGNs were re-suspended in Neurobasal^TM medium supplemented with 2% (v/v) B27, 0.5% (v/v) glutamax, 100 U/ml penicillin, 100 μg/ml streptomycin, 0.4% (w/v) BSA, and 20 mM HEPES and were seeded in 8-well LabTek Permanox chamber slides (Nunc) at a density of 1 × 10^4 cells/cm^2. Various concentrations of ARTN, artefin, scrambled artefin, or reversed artefin were added to neurons immediately after seeding. For the RET inhibition assay, the inhibitory goat anti-mouse RET antibody (4.1 μg/ml; R&D systems, Abingdon, United Kingdom) or control goat IgG (4.1 μg/ml; Santa Cruz Biotechnology, Dallas, TX, United States) were added to neurons 1 h before stimulation with ARTN (0.042 nM) […]. For the competition assay between growth factor and mimetic peptide, a combination of ARTN (2.1 nM) and artefin (4.2 μM) was added to the cells immediately after seeding. To inhibit Fibroblast growth factor receptor (FGFR) pharmacologically, inhibitor of FGFR, SU5402 (Sigma), was added to the growth medium in serial dilutions of 20, 40, and 80 μM immediately after plating of CGNs, followed by addition of either P2-d (8 μg/ml), ARTN (0.21 nM), or artefin (1.4 μM) 1 h after the plating.
(§3) To estimate neurite outgrowth, neurons were fixated 24 h after stimulation and stained with rabbit anti-growth-associated-protein-43 (GAP-43) antibody (Chemicon International, Inc., Temecula, CA, United States) or anti-GFP antibody (for transfection experiment) overnight at 4°C followed by incubation with secondary Alexa-conjugated goat anti-rabbit antibodies (Invitrogen, Taastrup, Denmark). In case of experiments with plasmid transfection, the transfection efficiency was ca. 20% of total cells and the neurite outgrowth was evaluated only in GFP-positive, i.e., transfected, cells. For representative pictures, cells were additionally co-stained with Hoechst 33258.
(§4) Computer-assisted fluorescent microscopy was performed using a Nikon Diaphot 300 inverted microscope (Nikon) equipped with a Nikon Plan 20× objective and coupled to a video camera (Grundig Electronics, Germany). For each condition in each experiment, including the experiment with transfections, images of approximately 200 cells were recorded in systematic series of fields of view, and neurite outgrowth was quantified using a stereological approach as previously described ([Rønn et al., 2000]).
FIGURE 3 Neurite outgrowth induced by ARTN (A), artefin-dendrimer (B), and artefin-monomer (C) in CGNs. Cells were stimulated with ARTN (0.013, 0.042, 0.13, 0.42, and 2.1 nM) or artefin (0.16, 0.47, 1.4, 4.2, 12.6, and 37.9 μM) for 24 h. For the unstimulated control, the absolute length of neurites was 11.47 ± 1.5 μm. Results from four independent experiments are expressed as percentage of untreated control set to 100% and presented as mean ± SEM. The mean neurite outgrowth lengths were compared using one-way ANOVA for repeated measurements. The effect of individual concentrations of ARTN and artefin was compared to control using one-way ANOVA with Dunnett’s post-hoc test, ^∗p < 0.05; ^∗∗p < 0.01. […]

[2] = tested on: RET; cerebellar granule neurons (CGNs); assay: Neurite outgrowth in CGNs with anti-RET antibody; type: cell-based, Wistar rat; conditions: for neurite outgrowth without antibody: ARTN 0.042 nM or artefin 0.47 μM, versus control; for neurite outgrowth with anti-RET antibody / neurite outgrowth with control IgG: 1 h before ARTN 0.042 nM or artefin 0.47 μM; for neurite outgrowth with control IgG: control IgG 4.1 μg/ml
Experimental: as §1, §2, §3, §4
FIGURE 6 Inhibition of ARTN-induced (A) and artefin-induced (B) neurite outgrowth in CGNs by anti-RET antibody. CGNs were pre-treated directly after plating for 1 h with anti-RET antibody or control IgG in concentrations 4.1 μg/ml before stimulating with ARTN (0.042 nM) or artefin (0.47 μM).

[3] = target: T2, recombinant rat NCAM Ig1–3 (rat, UniProt P13596 20-308); assay: SPR; Biacore 2000, 25°C, HBS-EP (10 mM HEPES pH 7.4, 150 mM NaCl, 3 mM EDTA, 0.005% P20); ARTN (~2300 RU) or artefin (~1600 RU) amine-coupled on a CM4 chip; serially diluted GFRα3/Fc or NCAM Ig1–3 injected at 20 μl/min; 1:1 interaction model or steady-state affinity analysis; conditions: both partners purified
T2 construct: neural cell adhesion molecule (NCAM), rat, Ig1–3 domains; also called NCAM Ig1–3 domain; source: recombinant, produced as described previously (Soroka et al., 2003)
T2 sequence (P13596 20-308): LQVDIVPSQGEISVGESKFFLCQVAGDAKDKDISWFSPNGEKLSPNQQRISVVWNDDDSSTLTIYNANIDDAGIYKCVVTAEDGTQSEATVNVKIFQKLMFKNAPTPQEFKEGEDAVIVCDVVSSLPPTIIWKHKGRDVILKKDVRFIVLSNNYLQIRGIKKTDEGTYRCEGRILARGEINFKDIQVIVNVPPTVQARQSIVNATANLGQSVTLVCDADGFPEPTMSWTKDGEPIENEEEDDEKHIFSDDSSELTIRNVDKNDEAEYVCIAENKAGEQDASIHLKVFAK

[4] = target: T1, recombinant human GFRα3/Fc; assay: as above; conditions: both partners purified
[5] = tested on: GFRα2; design: method as in Scott and Ibañéz, 2001; conditions: previously shown; ref Scott and Ibañéz, 2001; cited from earlier work

Kd [3]	Kd [4]	Molecule	concentration of maximum neurite outgrowth ([1]; artefin as dendrimer)	neurite outgrowth compared to ARTN ([1]; artefin dendrimer, higher length of neurites)	maximum level of neurite outgrowth ([1]; artefin as dendrimer)	neurite outgrowth, single agent in competition assay [1]	overall neuritogenic effect [1]	neurite outgrowth effect of artefin in the presence of ARTN ([1]; artefin 4.2 μM co-incubated with ARTN 2.1 nM, p < 0.001 versus artefin alone)	neurite outgrowth, sequence specificity ([1]; tetramers, 4.2 μM, paired t-test versus untreated control)	neurite outgrowth without antibody [2]	neurite outgrowth with anti-RET antibody ([2]; anti-RET antibody 4.1 μg/ml)	neurite outgrowth with anti-RET antibody versus unstimulated control ([2]; anti-RET antibody 4.1 μg/ml, artefin 0.47 μM, p < 0.01)	neurite outgrowth with control IgG [2]	concentration of maximum neurite outgrowth [1]	dose-response of neurite outgrowth ([1]; 0.013–2.1 nM)	interaction with GFRα2 [5]
–	–	I: RSPHDLSLASLLGAGKK-NH2 / II: RSPHDLSLASLLGAGK / III: RSPHDLSLASLLGAG / IV: RSPHDLSLASLLGAG (amide I:16-IV:C, I:17-II:C, II:16-III:C; C-terminus assumed) [artefin]	4.2 µM	more effective (higher length of neurites) than ARTN	404 % of control	significant increase in neurite outgrowth (p < 0.001)	statistically significant (F = 9.723, p < 0.0001)	eliminated	statistically significant increase in neurite length when compared to the control condition (p < 0.01)	significantly increased when compared to the control (p < 0.01)	statistically significant reduction of artefin-induced neurite outgrowth (p < 0.01 versus artefin alone)	still significantly different from unstimulated control	did not significantly alter the neuritogenic effect of artefin	–	–	–
13 µM	0.0027 µM	recombinant human Artemin (ARTN) (ligand, UniProt Q5T4W7 108-220, looked up, Artemin (ARTN), human, UniProt D3DPX9; source: bought: R&D Systems) AGGPGSRARAAGARGCRLRSQLVPVRALGLGHRSDELVRFRFCSGSCRRARSPHDLSLASLLGAGALRPPPGSRPVSQPCCRPTRYEAVSFMDVNSTWRTVDRLSATACGCLG	–	–	210 % of control	equivalent to that of the control condition	statistically significant (F = 5.069, p < 0.01)	–	–	significantly higher level of neurite outgrowth than control cultures	completely abolished the neurite elongation effect of ARTN	–	did not affect the ARTN-induced neurite outgrowth	4.2e-05 µM	bell-shaped dose-response manner	previously been shown to interact with GFRα1and GFRα2
